Values quoted from earlier work, collected in US10232044B2, “Controlled release aural pressure modulator compositions and methods for the treatment of OTIC disorders” (Otonomy, Inc., priority 2008, dated 2019).
Where two headings read alike, the source gives them in different places.

Tests used:
8-isoprostaglandin F2α = conditions: sensorineural hearing loss animal models, noise exposure
[1] = target: constitutively activated D136A mutant VP2 receptor (Homo sapiens, UniProt P30518, D136A)
intra-ocular pressure = conditions: glaucoma patients

SMILES | intra-ocular pressure (intra-ocular pressure) | further results
O=C(O)CCC/C=C\C[C@@H]1[C@H](CNNC(=O)Nc2ccccc2)[C@H]2CC[C@@H]1O2 [SQ29548] |  | noise-induced changes in cochlear blood flow and vascular conductance (8-isoprostaglandin F2α): prevents these noise-induced changes
CCOc1ccc2c(c1)C1(CCC(OCCN3CCOCC3)CC1)C(=O)N2S(=O)(=O)c1ccc(C(=O)NC(C)(C)C)cc1OC (stereo not drawn) [SR-1211463] |  | behaviour at D136A mutant VP2 receptor [1]: inverse agonist
NC(=O)CC[C@@H]1NC(=O)[C@H](Cc2ccccc2)NC(=O)[C@H](Cc2ccc(O)cc2)NC(=O)[C@@H](N)CSSC[C@@H](C(=O)N2CCC[C@H]2C(=O)N[C@@H](CCCN=C(N)N)C(=O)NCC(N)=O)NC(=O)[C@H](CC(N)=O)NC1=O [VP] |  | endolymphatic hydrops (endolymphatic hydrops; chronic administration, guinea pigs): induces endolymphatic hydrops; endolymphatic hydrops (endolymphatic hydrops; systemic administration, guinea pig): development of endolymphatic hydrops
CCNC(=O)CCC/C=C\C[C@@H]1[C@@H](/C=C/[C@@H](O)CCc2ccccc2)[C@H](O)C[C@@H]1O [bimtoprost] | reduce intra-ocular pressure | 
CC(C)OC(=O)CCC/C=C\C[C@@H]1[C@@H](CC[C@@H](O)CCc2ccccc2)[C@H](O)C[C@@H]1O [latanoprost] | reduce intra-ocular pressure | 
CCCCC[C@H](O)/C=C/[C@@H]1[C@@H](C/C=C\CCCC(=O)O)[C@@H](O)C[C@H]1O [minprostin F2 alpha] | reduce intra-ocular pressure | 
CC(C)OC(=O)CCC/C=C\C[C@@H]1[C@@H](/C=C/[C@@H](O)COc2cccc(C(F)(F)F)c2)[C@H](O)C[C@@H]1O [travoprost] | reduce intra-ocular pressure | 
CCCCCCCC(=O)CC[C@@H]1[C@@H](C/C=C\CCCC(=O)O)[C@@H](O)C[C@H]1O [unoprostone] | reduce intra-ocular pressure | 
